Results as given in patent publication US20200150109A1, “MICROTUBULE-TARGETING DRUGS AS IMMUNE CHECKPOINT INHIBITORS AND METHODS OF SCREENING NOVEL IMMUNE CHECKPOINT INHIBITORS FOR THE TREATMENT OF CANCERS AND INFECTIOUS DISEASES” (INSERM (Institut National de la Santé et de la Recherche …, priority 2017, published 2020).
Entries after “also recorded” stand apart in the source; their conditions may differ.

What was measured:
PD-1 protein = experiment: Immunoblot of PD-1 protein in CD3+ T lymphocyte cell extracts; type: cell-based, human; conditions: CD3+ T lymphocytes cell extracts, treated or not with CI-980; 3 independent experiments
Experimental: CD3+T lymphocytes cell extracts, treated or not with CI-980, were analyzed by immunoblots.

LAG3 = experiment: Immune checkpoint expression by activated T lymphocytes (flow cytometry), LAG3; type: cell-based, human; conditions: CD3+ T lymphocytes activated with anti-CD3/CD28 beads + IL-2; CI-980 10 nM; 3 days
Experimental: (§1) CD3+ T lymphocyes were activated with anti-CD3/CD28 antibodies-coated beads plus IL-2, in the presence or absence of CI-980 (10 nM), and immune checkpoint expression were assessed by flow cytometry 3 days later.
(§2) PBMC isolated from healthy donors were activated with CD3/CD28 antibodies-coated beads (ThermoFisher) and IL-2 (100 IU/ml) in the presence of the specified concentration of the tested drug. In the example (FIG. 1), these drugs include CI-980 (so-called NSC 613862 or mivobulin) (10 nM, or 1 nM and 0.1 nM as indicated in Figures), Combretastatin-A4 (CBT-A4), (100 nM), Colchicine (100 nM), Indibulin (100 nM), Vincristine (1 μM), Vinblastine (1 μM), Vinflunine (1 μM), Vinorelbine (1 μM), Paclitaxel (1 μM), 13-Lumi(−)-Colchicine (100 nM), Camptothecin (CPT) (1 μM), Triptolide (100 nM), Mitomycin C (1 μM), Aphidicolin (1 μM). After 3 days of in vitro cell culture in complete medium at 37° C. in a humidified atmosphere containing 5% CO2, cells were immunostained for CD3 (BioLegend, clone UCHT1), CD4 (BioLegend, clone RPA-T4), CD8 (BioLegend, clone RPA-T8), CD69 (BioLegend, clone FN50), CD279 (BD Biosciences, clone EH12.1), LAG3 (BioLegend, clone 11C3C65), TIM3 (BioLegend, clone F38-2E2) and CTLA4 (BioLegend, clone BNI3) expression and then analysed for immune checkpoint expression by flow cytometry and gating on the indicated subsets of T or NK cells.

TIM3 = experiment: Immune checkpoint expression by activated T lymphocytes (flow cytometry), TIM3; type: cell-based, human; conditions: CD3+ T lymphocytes activated with anti-CD3/CD28 beads + IL-2; CI-980 10 nM; 3 days
Experimental: as §1, §2

SU-DHL-1 = experiment: Cytotoxicity assay, drug-treated activated PBMC against SU-DHL-1; type: cell-based, human; conditions: PBMC activated 3 days with CI-980 10 nM, rinsed, 4 hours with SU-DHL-1, 2:1 effector-to-target ratio
Experimental: (§3) PBMC isolated from healthy donors were activated with anti-CD3/CD28 antibodies-coated beads plus IL-2, in the presence or absence of CI-980 (10 nM). After 3 days, PBMC were rinsed and co-incubated for 4 hours with the PD-L1^+ cancer cell lines Karpas-299 or SU-DHL-1. Specific lysis of the target cell lines was then measured by staining of dying cells with propidium iodide (PI) and flow cytometry analysis.
(§4) PBMC isolated from healthy donors, used as effector cells, were activated with CD3/CD28 beads and IL-2, in presence or absence of CI-980 (10 nM). Human cancer cell lines-expressing PD-L1 karpas-299 and SU-DHL-1 were used as targets cells. Prior to be mixed with the effector cells, target cells were labelled with CellTrace-Violet (ThermoFisher) in order to distinguish them from the effector cells. After 3 days, effector cells were rinsed and combined with target cells at a 2:1 effector-to-target ratio. Cells were incubated during 4 hours at 37° C. and specific lysis were analysed by flow cytometry. The percentage of lysis was determined as percent of cells positive for both propidium iodide (PI) and CellTrace-Violet versus cells positive for CellTrace-Violet.

Karpas-299 = experiment: Cytotoxicity assay, drug-treated activated PBMC against Karpas-299; type: cell-based, human; conditions: PBMC activated 3 days with CI-980 10 nM, rinsed, 4 hours with Karpas-299, 2:1 effector-to-target ratio
Experimental: as §3, §4

CTLA4 = experiment: Immune checkpoint expression by activated T lymphocytes (flow cytometry), CTLA4; type: cell-based, human; conditions: CD3+ T lymphocytes activated with anti-CD3/CD28 beads + IL-2; CI-980 10 nM; 3 days
Experimental: as §1, §2

PD-1 mRNA = experiment: qRT-PCR of PD-1 mRNA from activated CD3+ T lymphocytes; type: cell-based, human; conditions: activated CD3+ T lymphocytes treated or not with CI-980; 3 independent experiments
PD-1 (CD279) = experiment: Cell-based test of PD-1 cell surface expression by activated T lymphocytes (flow cytometry); design: species or system human; conditions: PBMC activated with CD3/CD28 beads + IL-2, 3 days, drugs at their optimum IC50 for proliferation (CPT, mitomycin C, aphidicolin 1 μM; triptolide, Lumi-colchicine 100 nM)
Experimental: Shown are means and standard deviations from more than ten independent experiments, using drugs at their respective optimum IC50 for proliferation.
as §2

[1] = biological target: T1, PD-1 protein (programmed cell death protein 1, endogenous, from activated human CD3+ T lymphocytes) (human, UniProt Q15116 25-288); experiment: co-immunoprecipitation with anti-α-tubulin antibody from activated human CD3+ T lymphocyte extract, immunoblot for PD-1
T1 construct: Endogenous PD-1 in a T lymphocyte cell extract, detected by Western blot with anti-PD-1 (ThermoFisher PA5-20350); also called CD279; PDCD1
T1 sequence (Q15116 25-288 limits assumed): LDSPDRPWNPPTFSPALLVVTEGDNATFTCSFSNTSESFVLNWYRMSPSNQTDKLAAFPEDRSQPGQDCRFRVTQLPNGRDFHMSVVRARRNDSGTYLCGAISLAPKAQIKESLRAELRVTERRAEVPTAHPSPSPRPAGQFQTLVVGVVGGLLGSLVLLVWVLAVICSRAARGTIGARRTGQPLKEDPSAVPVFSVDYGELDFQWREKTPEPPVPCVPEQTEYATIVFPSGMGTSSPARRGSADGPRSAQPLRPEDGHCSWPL
Experimental: FIG. 4: PD-1 protein is not associated with tubulin in T lymphocytes.
α-tubulin was immunoprecipitated from activated CD3+T lymphocytes isolated from human PBMC of healthy donors using an anti-α-tubulin antibody (Sigma-Aldrich, clone B-5-1-2). Immunoprecipitation control with an anti-PD-1 antibody (ebioscience, clone J116) was also carried out. Immunoprecipitates were subjected to SDS-PAGE, and the co-immunoprecipitated PD-1 was assessed by Western Blot using an anti-PD-1 antibody (ThermoFisher, # PA5-20350).

Molecule: CCOC(=O)Nc1cc2c(c(N)n1)N=C(c1ccccc1)[C@H](C)N2 [CI-980]
- expression of PD-1 protein (immunoblot) (PD-1 protein): inhibit expression of PD-1 protein
- expression of LAG3 (LAG3): inhibits
- expression of TIM3 (TIM3): inhibits
- cytolytic activity (specific lysis of target cells, PI staining) (SU-DHL-1): enhance cytolytic activity of immune cells
- cytolytic activity (specific lysis of target cells, PI staining) (Karpas-299): enhance cytolytic activity of immune cells
- expression of CTLA4 (CTLA4): inhibits
- PD-1 mRNA level (qRT-PCR) (PD-1 mRNA): increase PD-1 mRNA level

Molecule: C[C@@]1(CO)[C@H](O)CC[C@@]2(C)[C@H]1CC[C@H]1C[C@@H]3C[C@@]12CC[C@]3(O)CO [aphidicolin]
- PD-1 cell surface expression (PD-1 (CD279)): do not inhibit PD-1 expression; also recorded: do not impact PD-1 expression

Molecule: COC1=C[C@@H]2C3=C([C@@H]2C1=O)[C@@H](NC(C)=O)CCc1cc(OC)c(OC)c(OC)c13 [beta-Lumi(−)-colchicine]
- PD-1 cell surface expression (PD-1 (CD279)): does not affect PD-1 expression
- PD-1 cell surface expression (PD-1 (CD279); listed as β-Lumi(−)-Colchicine): do not impact PD-1 expression

Molecule: CC[C@@]1(O)C(=O)OCc2c1cc1n(c2=O)Cc2cc3ccccc3nc2-1 [camptothecin]
- PD-1 cell surface expression (PD-1 (CD279)): do not inhibit PD-1 expression; also recorded: do not impact PD-1 expression

Molecule: CO[C@@]12[C@H](COC(N)=O)C3=C(C(=O)C(C)=C(N)C3=O)N1C[C@@H]1N[C@@H]12 [mitomycin C]
- PD-1 cell surface expression (PD-1 (CD279)): do not inhibit PD-1 expression; also recorded: do not impact PD-1 expression

Molecule: CC(C)[C@]12O[C@H]1[C@@H]1O[C@]13[C@]1(O[C@H]1C[C@H]1C4=C(CC[C@@]13C)C(=O)OC4)[C@@H]2O [triptolide]
- PD-1 cell surface expression (PD-1 (CD279)): do not inhibit PD-1 expression; also recorded: do not impact PD-1 expression

B1: tubulin (endogenous, immunoprecipitated with an anti-α-tubulin antibody from extracts of activated human CD3+ T lymphocytes) (other)
chain 1: MRECISIHVGQAGVQIGNACWELYCLEHGIQPDGQMPSDKTIGGGDDSFNTFFSETGAGKHVPRAVFVDLEPTVIDEVRTGTYRQLFHPEQLITGKEDAANNYARGHYTIGKEIIDLVLDRIRKLADQCTRLQGFLVFHSFGGGTGSGFTSLLMERLSVDYGKKSKLEFSIYPAPQVSTAVVEPYNSILTTHTTLEHSDCAFMVDNEAIYDICRRNLDIERPTYTNLNRLISQIVSSITASLRFDGALNVDLTEFQTNLVPYPRIHFPLATYAPVISAEKAYHEQLSVADITNACFEPANQMVKCDPGHGKYMACCLLYRGDVVPKDVNAAIATIKTKRTIQFVDWCPTGFKVGINYQPPTVVPGGDLAKVQRAVCMLSNTTAIAEAWARLDHKFDLMYAKRAFVHWYVGEGMEEGEFSEAREDMAALEKDYEEVGVDSVEGEGEEEGEEY
chain 2: MREIVHIQAGQCGNQIGAKFWEVISDEHGIDPTGTYHGDSDLQLDRISVYYNEATGGKYVPRAILVDLEPGTMDSVRSGPFGQIFRPDNFVFGQSGAGNNWAKGHYTEGAELVDSVLDVVRKEAESCDCLQGFQLTHSLGGGTGSGMGTLLISKIREEYPDRIMNTFSVVPSPKVSDTVVEPYNATLSVHQLVENTDETYCIDNEALYDICFRTLRLTTPTYGDLNHLVSGTMECVTTCLRFPGQLNADLRKLAVNMVPFPRLHFFMPGFAPLTSRGSQQYRALTVPDLTQQVFDAKNMMAACDPRHGRYLTVAAVFRGRMSMKEVDEQMLNVQNKNSSYFVEWIPNNVKTAVCDIPPRGLKMAVTFIGNSTAIQELFKRISEQFTAMFRRKAFLHWYTGEGMDEMEFTEAESNMNDLVSEYQQYQDATAEEEEDFGEEAEEEA
notes: Endogenous protein from a cell lysate; also called alpha-tubulin
- binding result [1]: no binding
